Experimental data from US12527779B2, “Prostaglandin E2 (PGE2) EP4 receptor antagonists” (Domain Therapeutics, priority 2019, dated 2026).
Where a name gives a salt, the structure may show the parent alone.

The compounds below were run against T1, human EP4 (hEP4) receptor (Homo sapiens, UniProt P35408) (assay: In vitro human EP4 functional antagonist activity using BRET biosensors (cAMP EPAC biosensor, TCS2510 stimulation)). Settings: antagonist activity vs EC60 TCS2510, hEP4 in HEK-293 T cells.
T1 construct: expressed in transfected cells; host or cells: HEK-293 T cells, transient co-transfection with polyethylenimine
Assay type: cell-based
In short: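 Antagonism measured as inhibition of EC60 TCS2510-induced cAMP BRET signal (EPAC luciferase/GFP sensor) in transiently hEP4-expressing HEK-293T cells, following 5 min compound preincubation and 10 min luminescence recording. Plates equilibrated 1 h at 22 °C in HEPES buffer; 10 concentrations over 4.5 logs, duplicate in two independent experiments, sigmoidal variable-slope IC50.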

T1 sequence (P35408 whole entry): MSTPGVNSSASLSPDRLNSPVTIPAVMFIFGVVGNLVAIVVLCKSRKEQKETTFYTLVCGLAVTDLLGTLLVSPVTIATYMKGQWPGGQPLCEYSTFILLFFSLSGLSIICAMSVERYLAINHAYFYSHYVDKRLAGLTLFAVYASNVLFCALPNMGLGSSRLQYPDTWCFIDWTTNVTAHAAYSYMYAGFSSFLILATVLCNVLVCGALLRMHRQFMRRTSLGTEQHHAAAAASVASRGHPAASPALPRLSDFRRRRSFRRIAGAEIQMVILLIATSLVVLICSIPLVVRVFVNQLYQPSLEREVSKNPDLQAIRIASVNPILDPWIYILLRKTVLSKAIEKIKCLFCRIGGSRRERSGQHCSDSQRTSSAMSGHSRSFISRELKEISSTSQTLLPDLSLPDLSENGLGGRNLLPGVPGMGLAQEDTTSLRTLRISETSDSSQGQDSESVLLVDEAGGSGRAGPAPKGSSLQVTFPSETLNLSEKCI

`C[C@H](NC(=O)C1(c2ccc(OCc3ccccc3)cc2)CCCC1)c1ccc(C(=O)O)cc1` [Example 109, 4-[(1S)-1-[[1-(4-Benzyloxyphenyl)cyclopentanecarbonyl]amino]ethyl]benzoic acid] and `C[C@H](NC(=O)C1(c2cccc(OCc3ccccc3)c2)CCCC1)c1ccc(C(=O)O)cc1` [Example 113, 4-[(1S)-1-[[1-(3-Benzyloxyphenyl)cyclopentanecarbonyl]amino]ethyl]benzoic acid] cannot be ordered by IC50: < 100 nM for the first, < 100 nM for the second.

`C[C@H](NC(=O)C1(c2ccc(OCCC3CCCCC3)cc2)CCCC1)c1ccc(C(=O)O)cc1` [Example 110, 4-[(1S)-1-[[1-[4-(2-Cyclohexylethoxy)phenyl]cyclopentanecarbonyl]amino]ethyl]benzoic acid] and `C[C@H](NC(=O)C1(c2ccc(OCCC3CCCCC3)cn2)CCCC1)c1ccc(C(=O)O)cc1` [Example 128, 4-[(1S)-1-[[1-[5-(2-Cyclohexylethoxy)-2-pyridyl]cyclopentanecarbonyl]amino]ethyl]benzoic acid] cannot be ordered by IC50: < 100 nM for the first, < 1000 nM for the second.

`C[C@H](NC(=O)C1(c2cccc(OCC3CCCCC3)c2)CCCC1)c1ccc(C(=O)O)cc1` [Example 112, 4-[(1S)-1-[[1-[3-(Cyclohexylmethoxy)phenyl]cyclopentanecarbonyl]amino]ethyl]benzoic acid] and `C[C@H](NC(=O)C1(c2ccnc(OCC3CCCCC3)c2)CCCC1)c1ccc(C(=O)O)cc1` [Example 124, 4-[(1S)-1-[[1-[2-(Cyclohexylmethoxy)-4-pyridyl]cyclopentanecarbonyl]amino]ethyl]benzoic acid] cannot be ordered by IC50: < 100 nM for the first, < 100 nM for the second.

`C[C@H](NC(=O)C1(c2cccc(OCC3CCCCC3)n2)CCOCC1)c1ccc(C(=O)O)cc1` [Example 115, 4-[(1S)-1-[[4-[6-(Cyclohexylmethoxy)-2-pyridyl]tetrahydropyran-4-carbonyl]amino]ethyl]benzoic acid] and `C[C@H](NC(=O)C1(c2cccc(OCC3CCCCC3)n2)CCCC1)c1ccc(C(=O)O)cc1` [Example 123, 4-[(1S)-1-[[1-[6-(Cyclohexylmethoxy)-2-pyridyl]cyclopentanecarbonyl]amino]ethyl]benzoic acid] cannot be ordered by IC50: < 1000 nM for the first, < 1000 nM for the second.

`C[C@H](NC(=O)C1(c2ccnc(OCC3CCCCC3)c2)CCOCC1)c1ccc(C(=O)O)cc1` [Example 116, 4-[(1S)-1-[[4-[2-(Cyclohexylmethoxy)-4-pyridyl]tetrahydropyran-4-carbonyl]amino]ethyl]benzoic acid] and `C[C@H](NC(=O)C1(c2ccc(OCC3CCCCC3)nc2)CCOCC1)c1ccc(C(=O)O)cc1` [Example 121, 4-[(1S)-1-[[4-[6-(Cyclohexylmethoxy)-3-pyridyl]tetrahydropyran-4-carbonyl]amino]ethyl]benzoic acid] cannot be ordered by IC50: < 1000 nM for the first, < 1000 nM for the second.

`C[C@H](NC(=O)C1(c2cc(OCC3CCCCC3)ccn2)CCOCC1)c1ccc(C(=O)O)cc1` [Example 117, 4-[(1S)-1-[[4-[4-(Cyclohexylmethoxy)-2-pyridyl]tetrahydropyran-4-carbonyl]amino]ethyl]benzoic acid] and `C[C@H](NC(=O)C1(c2ccc(OCC3CCCCC3)cn2)CCOCC1)c1ccc(C(=O)O)cc1` [Example 119, 4-[(1S)-1-[[4-[5-(Cyclohexylmethoxy)-2-pyridyl]tetrahydropyran-4-carbonyl]amino]ethyl]benzoic acid] cannot be ordered by IC50: < 1000 nM for the first, < 1000 nM for the second.

`C[C@H](NC(=O)C1(c2ccc(OCCC3CCCCC3)cn2)CCOCC1)c1ccc(C(=O)O)cc1` [Example 120, 4-[(1S)-1-[[4-[5-(2-Cyclohexylethoxy)-2-pyridyl]tetrahydropyran-4-carbonyl]amino]ethyl]benzoic acid] and `C[C@H](NC(=O)C1(c2ccc(OCCC3CCCCC3)nc2)CCOCC1)c1ccc(C(=O)O)cc1` [Example 122, 4-[(1S)-1-[[4-[6-(2-Cyclohexylethoxy)-3-pyridyl]tetrahydropyran-4-carbonyl]amino]ethyl]benzoic acid] cannot be ordered by IC50: < 1000 nM for the first, < 1000 nM for the second.

`C[C@H](NC(=O)C1(c2ccc(OCC3CCCCC3)cn2)CCCC1)c1ccc(C(=O)O)cc1` [Example 127, 4-[(1S)-1-[[1-[5-(Cyclohexylmethoxy)-2-pyridyl]cyclopentanecarbonyl]amino]ethyl]benzoic acid] and `C[C@H](NC(=O)C1(c2ccc(OCC3CCCCC3)nc2)CCCC1)c1ccc(C(=O)O)cc1` [Example 129, 4-[(1S)-1-[[1-[6-(Cyclohexylmethoxy)-3-pyridyl]cyclopentanecarbonyl]amino]ethyl]benzoic acid] cannot be ordered by IC50: < 1000 nM for the first, < 100 nM for the second.

`C[C@H](NC(=O)C1(c2ccc(OCCC3CCCCC3)nc2)CCCC1)c1ccc(C(=O)O)cc1` [Example 130, 4-[(1S)-1-[[1-[6-(2-Cyclohexylethoxy)-3-pyridyl]cyclopentanecarbonyl]amino]ethyl]benzoic acid] and `C[C@H](NC(=O)C1(N2CCC[C@H](Oc3cccc(Cl)c3)C2)CCOCC1)c1ccc(C(=O)O)cc1` [Example 134, 4-[(1S)-1-[[4-[(3S)-3-(3-Chlorophenoxy)-1-piperidyl]tetrahydropyran-4-carbonyl]amino]ethyl]benzoic acid, hydrochloride] cannot be ordered by IC50: < 1000 nM for the first, < 1000 nM for the second.

`O=C(O)c1ccc(C2(NC(=O)C3(N4CCC[C@H](Oc5cccc(Cl)c5)C4)CCOCC3)CC2)cc1` [Example 135, 4-[1-[[4-[(3S)-3-(3-Chlorophenoxy)-1-piperidyl]tetrahydropyran-4-carbonyl]amino]cyclopropyl]benzoic acid, hydrochloride] and `O=C(O)c1ccc(C2(NC(=O)C3(N4CCC[C@@H](Oc5cccc(Cl)c5)C4)CCOCC3)CC2)cc1` [Example 137, 4-[1-[[4-[(3R)-3-(3-Chlorophenoxy)-1-piperidyl]tetrahydropyran-4-carbonyl]amino]cyclopropyl]benzoic acid, hydrochloride] cannot be ordered by IC50: < 1000 nM for the first, < 100 nM for the second.

`C[C@H](NC(=O)C1(N2CCC[C@@H](Oc3cccc(Cl)c3)C2)CCOCC1)c1ccc(C(=O)O)cc1` [Example 136, 4-[(1S)-1-[[4-[(3R)-3-(3-Chlorophenoxy)-1-piperidyl]tetrahydropyran-4-carbonyl]amino]ethyl]benzoic acid, hydrochloride] and `C[C@H](NC(=O)C1(N2CC[C@H](Oc3cccc(Cl)c3)C2)CCOCC1)c1ccc(C(=O)O)cc1` [Example 138, 4-[(1S)-1-[[4-[(3S)-3-(3-Chlorophenoxy)pyrrolidin-1-yl]tetrahydropyran-4-carbonyl]amino]ethyl]benzoic acid, hydrochloride] cannot be ordered by IC50: < 100 nM for the first, < 1000 nM for the second.

`O=C(O)c1ccc(C2(NC(=O)C3(N4CC[C@H](Oc5cccc(Cl)c5)C4)CCOCC3)CC2)cc1` [Example 139, 4-[1-[[4-[(3S)-3-(3-Chlorophenoxy)pyrrolidin-1-yl]tetrahydropyran-4-carbonyl]amino]cyclopropyl]benzoic acid, hydrochloride] and `O=C(O)c1ccc(C2(NC(=O)C3(N4CC[C@@H](Oc5cccc(Cl)c5)C4)CCOCC3)CC2)cc1` [Example 141, 4-[1-[[4-[(3R)-3-(3-Chlorophenoxy)pyrrolidin-1-yl]tetrahydropyran-4-carbonyl]amino]cyclopropyl]benzoic acid, hydrochloride] cannot be ordered by IC50: < 1000 nM for the first, < 100 nM for the second.

`C[C@H](NC(=O)C1(N2CC[C@@H](Oc3cccc(Cl)c3)C2)CCOCC1)c1ccc(C(=O)O)cc1` [Example 140, 4-[(1S)-1-[[4-[(3R)-3-(3-Chlorophenoxy)pyrrolidin-1-yl]tetrahydropyran-4-carbonyl]amino]ethyl]benzoic acid, hydrochloride] was tested, and the IC50 was < 100 nM.
